Series [1] has as its system luciferase/TSHR+/+ K562 or luciferase/TSHR+/+ FTC133 cells. As to conditions: presence or absence of MEK inhibitor (10 nM trametinib, FTC133, 48 hours in FIG. 10A).
Experimental: Cytotoxicity assays: Cytotoxicity assays were performed as described elsewhere (see, e.g., Sterner, R. M. et al., Blood 133, 697-709 (2019)). In summation, luciferase/TSHR+/+K562 or luciferase/TSHR+/+FTC133 cells was used as a target cell. TSHR-CAR T cells or batch-matched control donor untransduced (non-transduced) T cells (UTD) were co-cultured with target cells at serial effector: target (E:T) ratios in T cell media. Cytotoxic efficiency was calculated by bioluminescence imaging on the Xenogen IVIS-200 Spectrum (PerkinElmer, Hopkinton, MA, USA) or Promega GlowMax Explorer (Promega Corporation, Fitchburg, WI, USA) at 24 hours, 48 hours, and 72 hours, as indicated in the specific experiment.
Cytotoxicity assays were performed as described elsewhere (Sterner, R. M. et al., Blood 133, 697-709 (2019)). Luciferase*TSHR*K562 or FTC133 cells were used as target cells. UTD or TSHR-CART cells were co-cultured with target cells at various effector: target (E:T) ratios in T cell medium. Cytotoxic efficiency was calculated by bioluminescence imaging on the Promega GlowMax Explorer (Promega Corporation, Fitchburg, WI, USA) at indicated time points.
The next series deals with ATC THJ-560 PDX tumors. In words: Tumor volume of ATC PDX tumors treated with MEK/BRAF inhibitors. The format is in vivo, NSG mice. As to the method:
FIGS. 9A-9J. Treatment of thyroid tumors with MAPK inhibitors results in upregulation of TSHR. […] NSG mice treated with different daily doses of trametinib for 8 days and tumor volume regression was measured. FIG. 9B) TSHR expression was restored with higher dose of trametinib, whereas pERK expression was reduced. Right. […] Left. Association between H-score of TSHR and pERK in correlation with trametinib dose-escalation. […] Assessment of tumor volume on NSG mice treated with different doses of R05126766. […] Right. ICH tumor sections showing TSRH and pERK expression. Left. H-score of TSRH and pERK in association with increasing doses of R05126766. FIG. 9E) Experimental schema of an ATC PDX model treated with MAPK inhibitors (MEKi and BRAFi). […] Treatment was begun when tumors were ˜75-100 mm^3. […] Upper panel. H-score of TSHR in ATC-derived treated tumors (One-way ANOVA; **p<0.01; n=4 mice; error bars, SEM). Lower panel. TSHR expression assessment via IHC. […] Tumor volume assessment over a period of 7 days of MAPK inhibitors dosage. FIG. 9H) Experimental schema of an ATC PDX model treated with MEK inhibitors. NSG mice were implanted with ATC PDX tumors and treatment with MEK inhibitors (for 14 days) R05126766 and trametinib started (daily dosage) when tumors reached ˜75-100 mm^3. […] Upper panel. […]

The test system of series [2] is TSHR expression in ATC PDX tumors (THJ-560 / MC-Th-560). In words: IHC of TSHR and pERK in ATC PDX tumors treated with MEK/BRAF inhibitors. It is filed as in vivo, NSG mice. As to the method:
Immunostaining was performed on paraffin-embedded tissue. Thyroid tissue microarray (TMA) was made from archival samples. Paraffin blocks were cut into 5 μm thick sections. Slides were deparaffinized, and were rehydrated with decreasing concentrations of ethanol and finally in water. Antigen retrieval was performed using Antigen Retrieval Solution (pH 6 or pH 9) (Dako, Glostrup, Denmark), for at least 15 minutes in an autoclave, and cooling for 30 minutes at room temperature. Washing slides with 3% hydrogen peroxide (Fisher Scientific, Waltham, MA, USA) for 10 minutes blocked the activity of endogenous peroxidases. Primary anti-human antibodies were used for 60 minutes at room temperature and at the following dilutions: TSHR antibody at 1:500 (abcam, ab218108, Cambridge, UK) and NIS antibody at 1:200 (ProteinTech, 24324-1-AP, Rosemont, IL, USA), CD14 antibody at 1:100 (abcam, ab183322, Cambridge, UK), CD80 at 1:1000 (abcam, ab134120, Cambridge, UK), CD206 at 1:5000 (abcam, ab64693, Cambridge, UK), Ki67 at 1:1000 (abcam, ab15580, Cambridge, UK), cleaved caspase 3 (Asp175) CC3 at 1:100 (Cell Signaling 9661, Danvers, MA, USA), and CD31 at (Santa Cruz Biotechnology, sc-1506, Dallas, TX, USA).
In this model, 5 mm^3 MC-Th-560 ATC PDX tissue was surgically implanted into the right lateral flank of NSG mice and grown to ˜100 mm^3. Mice then received daily treatment with either vehicle control or trametinib (MEK inhibitor) at the indicated doses.
The following was performed to assess the kinetics of TSHR expression after MEK/BRAF inhibition. Mice were implanted with 5 mm^3 Th-560 ATC PDX tumors. When tumors reached ˜100 mm^3, mice were treated daily with either vehicle control or with 1.5 mg/kg R05126766 plus 1 mg/kg dabrafenib.
Immunostaining was performed on paraffin-embedded tissue. Thyroid tissue microarray (TMA) was made from archival samples. Paraffin blocks were cut into 5 μm thick sections. […] The primary antibody was detected using the Envision Labeled Kit (Dako, Glostrup, Denmark) according to the manufacturer's protocol. […]

The mark [3] stands for this setting: one week of daily treatment at escalating doses, MC-Th-560 ATC PDX, vs placebo.

“Also recorded” adds a separate entry of the source.

With `CC(=O)Nc1cccc(-n2c(=O)n(C3CC3)c(=O)c3c(Nc4ccc(I)cc4F)n(C)c(=O)c(C)c32)c1` [trametinib], the “effect of MEK inhibitor on TSHR CART cell cytotoxicity” value in series [1] is on record as “did not impair”.

For `CNS(=O)(=O)Nc1nccc(Cc2c(C)c3ccc(Oc4ncccn4)cc3oc2=O)c1F` [Clone R05126766], the “anti-tumor activity (tumor volume by caliper)” value in the series with ATC THJ-560 PDX tumors (14 days daily, placebo, R05126766 or trametinib) is listed as “better anti-tumor activity in comparison to trametinib”. In addition, in the series on ATC THJ-560 PDX tumors (different daily doses (trametinib: 8 days)), the “tumor volume, dose escalation” value is “dose-depended tumor reduction; also recorded: proportional to thyroid tumor volume reduction”. Also, in series [2] (14 days daily oral, 1.5 mg/kg R05126766 or 1 mg/kg trametinib, vs vehicle/placebo), the “TSHR protein expression by IHC” value is given as “elevated significantly; also recorded: increased TSHR expression”. For the same compound, in series [2] (setting [3]), the “TSHR expression by IHC, dose escalation” value is “increase in TSHR expression; also recorded: increased expression of TSRH” and the “pERK expression by IHC, dose escalation” value is “reduction of pERK; also recorded: lower expression of pERK”.
